Results as given in article PMC2834666, “An enhancer peptide for membrane-disrupting antimicrobial peptides” (BMC Microbiology, 2010).
Converted amounts (≈) assume the structure as drawn. Bridge positions count the residues as written; N and C are the ends. Square brackets hold non-standard residues; d marks the D form. Peptide text beside a SMILES is read from it. * marks the point of attachment. X1 = CC[C@H](C)CCCCC(=O)*; Dab = NCC[C@H](N)C(=O)O

Columns and labels:
Assay type in all cases: cell-based
[1] = system: Staphylococcus aureus IFO12732; experiment: microbe, parasite or virus in culture; conditions: 10 mM Tris/HCl pH 7.5, 2 h incubation, colony count; for MBC: Staphylococcus aureus, IFO12732
Method: (§1) Microbicidal assay was performed as previously described. Briefly, each microbial strain in the mid-exponential phase was suspended in 10 mM Tris/HCl, pH 7.5. The microbial suspension was mixed with antimicrobials in the presence or absense of NP4P. After 2 h incubation, the suspension was diluted 1,000 times and inoculated on to plates of IFO702 medium. The number of colonies were counted, and a plot of peptide concentration vs colony number was created.

[2] = system: Escherichia coli JM109; conditions: for MBC, NP4P-: absence of NP4P, 10 mM Tris/HCl pH 7.5, 2 h incubation, colony count
Method: as §1, with “Briefly, each microbial strain in the mid-exponential phase was suspended in 10 mM Tris/HCl, pH 7.5.” left out

[3] = system: Pseudomonas aeruginosa IFO3899; conditions: absence of NP4P; 10 mM Tris/HCl pH 7.5, 2 h incubation, colony count
Method: as §1

[4] = system: Salmonella typhimurium IFO13245; conditions: absence of NP4P; 10 mM Tris/HCl pH 7.5, 2 h incubation, colony count
Method: as §1

[5] = system: Serratia marcescens IFO3736; conditions: absence of NP4P; 10 mM Tris/HCl pH 7.5, 2 h incubation, colony count
Method: as §1

SMILES	MBC ([1]; absence of NP4P) [µg/mL]	MBC ([1]; presence of 20 μg/mL NP4P) [µg/mL]	MBC, NP4P- ([1]; absence of NP4P) [µg/mL]	MBC, NP4P- [2] [µg/mL]	other results
CC1(C)S[C@@H]2[C@H](NC(=O)[C@H](N)c3ccccc3)C(=O)N2[C@H]1C(=O)O [Ampicillin]	250 (≈ 715 µM)	250			
CCN1CCN(c2cc3c(cc2F)c(=O)c(C(=O)O)cn3C2CC2)CC1 [Enrofloxacin]	0.25 (≈ 0.696 µM)	0.25			
CC[C@H](C)[C@H](N)C(=O)N[C@@H](CC(C)C)C(=O)N1CCC[C@H]1C(=O)N[C@@H](Cc1c[nH]c2ccccc12)C(=O)N[C@@H](CCCCN)C(=O)N[C@@H](Cc1c[nH]c2ccccc12)C(=O)N1CCC[C@H]1C(=O)N[C@@H](Cc1c[nH]c2ccccc12)C(=O)N[C@@H](Cc1c[nH]c2ccccc12)C(=O)N1CCC[C@H]1C(=O)N[C@@H](Cc1c[nH]c2ccccc12)C(=O)N[C@@H](CCCNC(=N)N)C(=O)N[C@@H](CCCNC(=N)N)C(N)=O [Indolicidin]			10 (≈ 5.25 µM)	10 (≈ 5.25 µM)	
NC[C@H]1O[C@H](O[C@H]2[C@H](O)[C@@H](O[C@H]3O[C@H](CO)[C@@H](O)[C@H](N)[C@H]3O)[C@H](N)C[C@@H]2N)[C@H](O)[C@@H](O)[C@@H]1O [Kanamycin]			3 (≈ 6.19 µM)		MBC, NP4P+ ([1]; presence of 20 μg/mL NP4P): 3 µg/mL
CC[C@H](C)CCCCC(=O)N[C@@H](CCN)C(=O)N[C@H](C(=O)N[C@@H](CCN)C(=O)N[C@H]1CCNC(=O)[C@H]([C@@H](C)O)NC(=O)[C@H](CCN)NC(=O)[C@H](CCN)NC(=O)[C@H](CC(C)C)NC(=O)[C@@H](Cc2ccccc2)NC(=O)[C@H](CCN)NC1=O)[C@@H](C)O [Polymyxin B] (X1-[Dab]T[Dab][Dab][Dab][dF]L[Dab][Dab]T; lactam 4-C (inferred); N-terminus assumed)				3 (≈ 2.49 µM)	shift of bactericidal dose-effect curve to lower concentration ([2]; in the presence of 100 μg/mL NP4P, 10 mM Tris-HCl, pH 7.4): ~10 times lower concentration; MBC, NP4P- [3]: 5 µg/mL (≈ 4.15 µM); MBC, NP4P- [4]: 5 µg/mL (≈ 4.15 µM); MBC, NP4P- [5]: 5 µg/mL (≈ 4.15 µM)
